Measurements published in patent publication US8609661B2, “Pyrimido-pyrrolo-quinoxalinedione inhibitors of cystic fibrosis transmembrane conductance regulator protein and uses therefor” (The Regents of the University of California, priority 2009, dated 2013).
Like-named read-outs stand apart in the source and are kept apart here.

Target: T1, human wildtype CFTR (Homo sapiens, UniProt P13569)
T1 construct: expressed in transfected cells; host or cells: Fischer rat thyroid (FRT) cells
Test: Fluorescence platereader assay of CFTR-mediated iodide influx (YFP quenching) in FRT cells
Assay type: cell-based
Settings: for inhibition at 5 µM / inhibition at 25 µM: FRT; for IC50: apparent IC50 from concentration-inhibition data, fluorescence platereader assay
Method: A. Cell lines and compounds—Fischer rat thyroid (FRT) cells co-expressing human wildtype CFTR and the halide indicator YFP-H148Q/1152L were generated as described (see, e.g., Ma et al., J. Clin. Invest. 110:1651-1658 (2002)). Cells were plated in 96-well black-walled microplates (Corning Costar) at a density of 20,000 cells per well in Coon's modified F12 medium supplemented with 5% fetal calf serum, 2 mM L-glutamine, 100 U/mL penicillin, and 100 μg/ml streptomycin. Assays were performed at 48 h after plating the cells when the cells were just confluent. For some experiments, measurements were made using T84 human intestinal epithelial cells and for other experiments, measurements were obtained using primary cultures of human bronchial epithelial cells, which were obtained and grown essentially as previously described (see, e.g., 3 and 27).
B. Compound Screening—Assays were performed using an automated screening platform (Beckman) equipped with FLUOStar fluorescence platereaders (BMG Lab Technologies, Offenburg, Germany) as described (see Ma et al., supra). Each well of a 96-well plate containing FRT cells was washed 3 times in PBS (300 μL/wash), leaving 50 μL PBS. […] After 15 min, 96-well plates were transferred to a plate reader for fluorescence assay. Each well was assayed individually for CFTR-mediated iodide influx by recording fluorescence continuously (200 ms per point) for 2 s (baseline) and then for 10 s after rapid addition of 160 μL of isosmolar PBS in which 137 mM chloride was replaced by iodide. The initial rate of iodide influx was computed from fluorescence data by non-linear regression.
Collections of synthetic and natural compounds were screened according to the screening procedures described in Example 2. A cell-based fluorescence assay was used in which CFTR inhibitors were identified by reduced iodide influx in FRT cells co-expressing human CFTR and a YFP halide sensor. CFTR was maximally activated by a mixture of agonists having different activating mechanisms. Inhibition of iodide influx was observed as reduced YFP fluorescence quenching in response to rapid iodide addition to each well of 96-well plates. […]

[1] = Table 2, screening, 5 μM, read-out: % Inhibition at 5 μM
[2] = Table 2, screening, 25 μM, read-out: % Inhibition at 25 μM
[3] = read-out: % inhibition at 25/5 μM (5 μM value), Table 1, 5 μM compound
[4] = read-out: % inhibition at 25/5 μM (25 μM value), Table 1, 25 μM compound

T1 sequence (P13569 whole entry): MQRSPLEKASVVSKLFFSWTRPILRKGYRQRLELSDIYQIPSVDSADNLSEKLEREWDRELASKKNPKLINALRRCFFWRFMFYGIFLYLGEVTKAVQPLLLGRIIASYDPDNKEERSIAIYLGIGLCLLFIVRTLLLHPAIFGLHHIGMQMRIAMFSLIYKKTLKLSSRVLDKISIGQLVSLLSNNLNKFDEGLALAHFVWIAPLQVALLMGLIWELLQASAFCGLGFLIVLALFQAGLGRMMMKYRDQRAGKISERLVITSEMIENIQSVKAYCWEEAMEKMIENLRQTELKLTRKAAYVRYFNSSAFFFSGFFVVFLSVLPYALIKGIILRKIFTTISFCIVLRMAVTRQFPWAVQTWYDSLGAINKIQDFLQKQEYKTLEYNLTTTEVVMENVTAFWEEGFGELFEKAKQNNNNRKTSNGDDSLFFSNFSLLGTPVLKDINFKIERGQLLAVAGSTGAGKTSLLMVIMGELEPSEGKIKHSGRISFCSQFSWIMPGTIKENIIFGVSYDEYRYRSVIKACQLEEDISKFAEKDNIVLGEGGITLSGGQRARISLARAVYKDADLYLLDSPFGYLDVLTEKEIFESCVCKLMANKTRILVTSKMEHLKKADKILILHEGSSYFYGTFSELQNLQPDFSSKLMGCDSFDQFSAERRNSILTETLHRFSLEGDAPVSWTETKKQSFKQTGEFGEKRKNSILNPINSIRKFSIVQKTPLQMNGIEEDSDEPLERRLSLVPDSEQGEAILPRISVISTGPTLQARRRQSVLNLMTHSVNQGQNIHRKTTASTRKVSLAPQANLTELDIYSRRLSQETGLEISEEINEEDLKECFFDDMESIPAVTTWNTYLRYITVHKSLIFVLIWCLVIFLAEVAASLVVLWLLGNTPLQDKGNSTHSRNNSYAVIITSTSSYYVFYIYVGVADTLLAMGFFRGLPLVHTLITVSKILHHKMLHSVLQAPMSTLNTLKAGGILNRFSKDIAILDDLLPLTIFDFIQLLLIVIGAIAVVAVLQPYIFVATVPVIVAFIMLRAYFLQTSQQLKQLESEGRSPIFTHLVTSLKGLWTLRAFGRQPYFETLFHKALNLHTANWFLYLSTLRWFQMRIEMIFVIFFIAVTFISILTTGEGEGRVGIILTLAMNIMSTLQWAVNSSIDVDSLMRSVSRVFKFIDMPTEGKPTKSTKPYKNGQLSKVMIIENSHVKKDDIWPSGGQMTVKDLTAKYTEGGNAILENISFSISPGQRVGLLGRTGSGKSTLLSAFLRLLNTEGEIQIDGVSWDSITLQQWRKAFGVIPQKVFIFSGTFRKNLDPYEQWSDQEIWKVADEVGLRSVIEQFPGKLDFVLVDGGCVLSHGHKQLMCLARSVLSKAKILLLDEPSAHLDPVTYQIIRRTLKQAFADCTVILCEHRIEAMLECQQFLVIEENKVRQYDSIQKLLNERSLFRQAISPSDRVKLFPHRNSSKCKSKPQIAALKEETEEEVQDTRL

| SMILES | inhibition at 5 µM [1] | inhibition at 25 µM [2] | inhibition at 5 µM [3] | inhibition at 25 µM [4] | IC50 |
| --- | --- | --- | --- | --- | --- |
| COc1ccc(-c2c3c(=O)n(C)c(=O)n(C)c3c3n2-c2ccccc2NC3c2ccc(C)o2)cc1 (stereo not drawn) [PPQ-109, 7,9-Dimethyl-11-(4-methoxyphenyl)-6-(5-methylfuran-2-yl)-5,6-dihydro-pyrimido[4′,5′-3,4]pyrrolo[1,2-a]quinoxaline-8,10-(7H,9H)-dione] | 12% | 68% | – | – | – |
| Cc1ccc(-c2c3c(=O)n(C)c(=O)n(C)c3c3n2-c2ccccc2NC3c2ccc(C)o2)cc1 (stereo not drawn) [PPQ-110, 7,9-Dimethyl-11-(4-methylphenyl)-6-(5-methylfuran-2-yl)-5,6-dihydro-pyrimido[4′,5′-3,4]pyrrolo[1,2-a]quinoxaline-8,10-(7H,9H)-dione] | 21% | 57% | – | – | – |
| Cc1ccc(C2Nc3ccccc3-n3c(-c4ccc(Cl)cc4)c4c(=O)n(C)c(=O)n(C)c4c32)o1 (stereo not drawn) [PPQ-111, 7,9-Dimethyl-11-(4-cholophenyl)-6-(5-methylfuran-2-yl)-5,6-dihydro-pyrimido[4′,5′-3,4]pyrrolo[1,2-a]quinoxaline-8,10-(7H,9H)-dione] | 31% | 75% | – | – | – |
| Cn1c(=O)c2c(-c3ccccc3)n3c(c2n(C)c1=O)C(c1ccco1)Nc1ccccc1-3 (stereo not drawn) [PPQ-112, 7,9-Dimethyl-11-phenyl-6-(5-furan-2-yl)-5,6-dihydro-pyrimido[4′,5′-3,4]pyrrolo[1,2-a]quinoxaline-8,10-(7H,9H)-dione] | 11% | 54% | – | – | – |
| Cn1c(=O)c2c(-c3ccccc3)n3c(c2n(C)c1=O)C(c1cccs1)Nc1ccccc1-3 (stereo not drawn) [PPQ-113, 7,9-Dimethyl-11-phenyl-6-(thienyl-2-yl)-5,6-dihydro-pyrimido[4′,5′-3,4]pyrrolo[1,2-a]quinoxaline-8,10-(7H,9H)-dione] | 34% | 77% | – | – | – |
| Cc1cccc(-c2c3c(=O)n(C)c(=O)n(C)c3c3n2-c2ccccc2NC3c2cccs2)c1 (stereo not drawn) [PPQ-114, 7,9-Dimethyl-11-(3-methylphenyl)-6-(thienyl-2-yl)-5,6-dihydro-pyrimido[4′,5′-3,4]pyrrolo[1,2-a]quinoxaline-8,10-(7H,9H)-dione] | 29% | 79% | – | – | – |
| Cc1cc2c(cc1C)-n1c(-c3ccccc3)c3c(=O)n(C)c(=O)n(C)c3c1C(c1cccs1)N2 (stereo not drawn) [PPQ-115, 2,3,7,9-Tetramethyl-11-phenyl-6-(thienyl-2-yl)-5,6-dihydro-pyrimido[4′,5′-3,4]pyrrolo[1,2-a]quinoxaline-8,10-(7H,9H)-dione] | 14% | 61% | – | – | – |
| Cn1c(=O)c2c(-c3ccccc3F)n3c(c2n(C)c1=O)C(c1cccs1)Nc1ccccc1-3 (stereo not drawn) [PPQ-116, 7,9-Dimethyl-11-(2-fluorophenyl)-6-(thienyl-2-yl)-5,6-dihydro-pyrimido[4′,5′-3,4]pyrrolo[1,2-a]quinoxaline-8,10-(7H,9H )-dione] | 47% | 76% | – | – | – |
| Cc1ccccc1-c1c2c(=O)n(C)c(=O)n(C)c2c2n1-c1ccccc1NC2c1cccs1 (stereo not drawn) [PPQ-117, 7,9-Dimethyl-11-(2-methylphenyl)-6-(thienyl-2-yl)-5,6-dihydro-pyrimido[4′,5′-3,4]pyrrolo[1,2-a]quinoxaline-8,10-(7H,9H)-dione] | 19% | 67% | – | – | – |
| Cn1c(=O)c2c(-c3ccccc3)n3c(c2n(C)c1=O)C(c1cccc(F)c1F)Nc1ccccc1-3 (stereo not drawn) [PPQ-201, 7,9-Dimethyl-11-phenyl-6-(2,3-difluorophenyl)-5,6-dihydro-pyrimido[4′,5′-3,4]pyrrolo[1,2-a]quinoxaline-8,10-(7H,9H)-dione] | 72% | 93% | 72% | 93% | 1200 nM |
| Cn1c(=O)c2c(-c3ccccc3)n3c(c2n(C)c1=O)C(c1cccc([N+](=O)[O-])c1)Nc1ccccc1-3 (stereo not drawn) [PPQ-202, 7,9-Dimethyl-11-phenyl-6-(3-nitrophenyl)-5,6-dihydro-pyrimido[4′,5′-3,4]pyrrolo[1,2-a]quinoxaline-8,10-(7H,9H)-dione] | 60% | 90% | 60% | 90% | 1200 nM |
| Cc1cc2c(cc1C)-n1c(-c3ccccc3)c3c(=O)n(C)c(=O)n(C)c3c1C(c1ccc(O)cc1)N2 (stereo not drawn) [PPQ-203, 2,3,7,9-Tetramethyl-11-phenyl-6-(4-hydroxyphenyl)-5,6-dihydro-pyrimido[4′,5′-3,4]pyrrolo[1,2-a]quinoxaline-8,10-(7H,9H)-dione] | 80% | > 95% | 80% | – | 1500 nM |
| COc1cccc(C2Nc3ccccc3-n3c(-c4ccccc4)c4c(=O)n(C)c(=O)n(C)c4c32)c1 (stereo not drawn) [PPQ-204, 7,9-Dimethyl-11-phenyl-6-(3-methoxyphenyl)-5,6-dihydro-pyrimido[4′,5′-3,4]pyrrolo[1,2-a]quinoxaline-8,10-(7H,9H)-dione] | 63% | 86% | 63% | 86% | 1700 nM |
| Cn1c(=O)c2c(-c3ccccc3)n3c(c2n(C)c1=O)C(c1ccccc1F)Nc1ccccc1-3 (stereo not drawn) [PPQ-205, 7,9-Dimethyl-11-phenyl-6-(2-fluorophenyl)-5,6-dihydro-pyrimido[4′,5′-3,4]pyrrolo[1,2-a]quinoxaline-8,10-(7H,9H)-dione] | 61% | 81% | 61% | 81% | 2000 nM |
| Cn1c(=O)c2c(-c3ccccc3)n3c(c2n(C)c1=O)C(c1ccccc1)Nc1ccccc1-3 (stereo not drawn) [PPQ-206, 7,9-Dimethyl-11-phenyl-6-phenyl-5,6-dihydro-pyrimido[4′,5′-3,4]pyrrolo[1,2-a]quinoxaline-8,10-(7H,9H)-dione] | – | – | – | – | 2500 nM |
| Cn1c(=O)c2c(-c3ccccc3)n3c(c2n(C)c1=O)C(c1ccc(O)cc1)Nc1ccccc1-3 (stereo not drawn) [PPQ-207, 7,9-Dimethyl-11-phenyl-6-(4-hydroxyphenyl)-5,6-dihydro-pyrimido[4′,5′-3,4]pyrrolo[1,2-a]quinoxaline-8,10-(7H,9H)-dione] | 64% | 86% | 64% | 86% | 4500 nM |
| COc1cc(O)ccc1C1Nc2ccccc2-n2c(-c3ccccc3)c3c(=O)n(C)c(=O)n(C)c3c21 (stereo not drawn) [PPQ-208, 7,9-Dimethyl-11-phenyl-6-(2-methoxy-4-hydroxyphenyl)-5,6-dihydro-pyrimido[4′,5′-3,4]pyrrolo[1,2-a]quinoxaline-8,10-(7H,9H)-dione] | 13% | 56% | – | 56% | 100000 nM |
| Cc1cccc(-c2c3c(=O)n(C)c(=O)n(C)c3c3n2-c2ccccc2NC3c2ccc(O)cc2)c1 (stereo not drawn) [PPQ-209, 7,9-Dimethyl-11-(3-methylphenyl)-6-(4-hydroxyphenyl)-5,6-dihydro-pyrimido[4′,5′-3,4]pyrrolo[1,2-a]quinoxaline-8,10-(7H,9H)-dione] | 71% | 94% | 71% | 94% | 1700 nM |
| COc1cccc(C2Nc3ccccc3-n3c(-c4cccc(C)c4)c4c(=O)n(C)c(=O)n(C)c4c32)c1 (stereo not drawn) [PPQ-210, 7,9-Dimethyl-11-(3-methylphenyl)-6-(3-methoxyphenyl)-5,6-dihydro-pyrimido[4′,5′-3,4]pyrrolo[1,2-a]quinoxaline-8,10-(7H,9H)-dione] | 73% | > 95% | 73% | – | 1700 nM |
| COc1cccc(C2Nc3ccccc3-n3c(-c4ccccc4F)c4c(=O)n(C)c(=O)n(C)c4c32)c1 (stereo not drawn) [PPQ-211, 7,9-Dimethyl-11-(2-fluorophenyl)-6-(3-methoxyphenyl)-5,6-dihydro-pyrimido[4′,5′-3,4]pyrrolo[1,2-a]quinoxaline-8,10-(7H,9H)-dione] | 62% | > 95% | 62% | – | 2000 nM |
| Cc1cccc(-c2c3c(=O)n(C)c(=O)n(C)c3c3n2-c2ccccc2NC3c2cccc([N+](=O)[O-])c2F)c1 (stereo not drawn) [PPQ-212, 7,9-Dimethyl-11-(3-methylphenyl)-6-(2-fluoro-3-nitrophenyl)-5,6-dihydro-pyrimido[4′,5′-3,4]pyrrolo[1,2-a]quinoxaline-8,10-(7H,9H)-dione] | – | – | – | – | 2000 nM |
